pIC50, pKi: −log10 of the molar value. Activity calls are given as the source filed them. The rule behind the calls is not given here.
Assays:
Adenosine receptor A3 = molecular target: T1, Adenosine receptor A3 (Homo sapiens, UniProt P0DMS8); experiment: Displacement of [3H]PSB-11 from human A3 adenosine receptor expressed in CHO cell membranes incubated for 60 mins by liquid scintillation counting method
T1 sequence (P0DMS8 whole entry): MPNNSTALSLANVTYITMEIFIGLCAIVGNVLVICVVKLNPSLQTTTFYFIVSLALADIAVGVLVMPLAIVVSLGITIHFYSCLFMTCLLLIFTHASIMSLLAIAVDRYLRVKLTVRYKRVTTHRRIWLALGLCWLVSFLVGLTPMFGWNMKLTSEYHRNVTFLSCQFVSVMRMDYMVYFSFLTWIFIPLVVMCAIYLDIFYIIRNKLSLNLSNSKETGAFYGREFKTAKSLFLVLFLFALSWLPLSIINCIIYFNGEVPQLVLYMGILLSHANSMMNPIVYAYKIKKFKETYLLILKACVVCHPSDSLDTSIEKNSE

Neutrophil elastase = molecular target: T2, Neutrophil elastase (Homo sapiens, UniProt P08246); experiment: Inhibition of human leukocyte elastase assessed as reduction in pNA release using chromogenic MeO-Suc-Ala-Ala-Pro-Val-pNA substrate measured over 10 mins by spectrophotometry; conditions: for pIC50: read-out: IC50
T2 sequence (P08246 whole entry): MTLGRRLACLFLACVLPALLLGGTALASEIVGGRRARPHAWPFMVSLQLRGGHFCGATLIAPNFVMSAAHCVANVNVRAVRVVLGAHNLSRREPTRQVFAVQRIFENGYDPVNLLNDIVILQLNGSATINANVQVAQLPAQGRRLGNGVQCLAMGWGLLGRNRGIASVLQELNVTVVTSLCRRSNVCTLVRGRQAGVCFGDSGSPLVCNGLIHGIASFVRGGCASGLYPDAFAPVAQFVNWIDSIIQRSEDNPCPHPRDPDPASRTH

[1] = Inhibition of Manduca sexta V-type proton ATPase assessed as reduction in inorganic phosphate production pre-inucubated for 5 mins before Tris-ATP addition and measured after 2 mins
P2X purinoceptor 3 = molecular target: T3, P2X purinoceptor 3 (Homo sapiens, UniProt P56373); experiment: Inhibition of human P2X3 assessed as reduction in agonist-induced intracellular Ca2+ concentration pre-incubated for 30 mins before agonist addition by calcium 5 dye based fluorescence assay; type: cell-based
T3 sequence (P56373 whole entry): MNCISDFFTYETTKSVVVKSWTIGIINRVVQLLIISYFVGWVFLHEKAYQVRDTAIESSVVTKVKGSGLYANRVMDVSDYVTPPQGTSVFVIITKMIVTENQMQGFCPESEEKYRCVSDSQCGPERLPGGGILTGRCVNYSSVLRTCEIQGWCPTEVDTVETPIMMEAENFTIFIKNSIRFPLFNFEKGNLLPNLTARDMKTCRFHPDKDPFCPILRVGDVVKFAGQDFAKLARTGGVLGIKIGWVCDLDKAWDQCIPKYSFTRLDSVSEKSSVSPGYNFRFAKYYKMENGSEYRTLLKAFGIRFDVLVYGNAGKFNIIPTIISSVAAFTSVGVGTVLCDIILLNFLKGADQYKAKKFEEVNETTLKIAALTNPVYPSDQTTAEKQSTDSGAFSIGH

cells = conditions: Homo sapiens, 1321-N1, 72 h
Description: Growth inhibition of human 1321N1 cells incubated for 72 hrs by MTT assay

[2] = Intrinsic clearance in CD1 mouse liver microsomes at 1 uM; type: ADME, Microsome; conditions: read-out: CLH
Trypsin (Homo sapiens) = Trypsin (Homo sapiens) (UniProt P07477+P07478+P35030); experiment: Inhibition of trypsin (unknown origin) assessed as reduction in pNA release using chromogenic Suc-Ala-Ala-Pro-Arg-pNA substrate measured over 10 mins by spectrophotometry; type: protein assay
[3] = molecular target: Cathepsin B (Homo sapiens) (UniProt P07858); experiment: Inhibition of cathepsin B (unknown origin) assessed as reduction in pNA release using chromogenic Z-Arg-Arg-pNA substrate measured over 1 hr by spectrophotometry
[4] = molecular target: Procathepsin L (Homo sapiens) (UniProt P07711); experiment: Inhibition of cathepsin L (unknown origin) assessed as reduction in pNA release using chromogenic Z-Phe-Arg-pNA substrate measured over 1 hr by spectrophotometry
Procathepsin L (Homo sapiens), sequence (P07711 114-333 limits assumed): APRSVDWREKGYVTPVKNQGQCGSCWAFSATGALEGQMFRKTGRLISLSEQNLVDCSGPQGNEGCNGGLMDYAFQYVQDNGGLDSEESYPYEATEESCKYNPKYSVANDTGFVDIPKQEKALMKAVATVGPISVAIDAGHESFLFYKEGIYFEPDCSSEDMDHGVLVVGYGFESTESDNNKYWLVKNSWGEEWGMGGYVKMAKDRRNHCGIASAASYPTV

[5] = molecular target: Chymotrypsin (Homo sapiens) (UniProt Q99895+P17538+P40313+Q6GPI1); experiment: Inhibition of chymotrypsin (unknown origin) assessed as reduction in pNA release using chromogenic Suc-Ala-Ala-Pro-Phe-pNA substrate measured over 12.5 mins by spectrophotometry; type: protein assay
[6] = Stability in CD1 mouse liver microsomes assessed as rapid demethylation at 1 uM; type: ADME, Microsome
[7] = Stability in CD1 mouse liver microsomes assessed as rapid oxidation at 1 uM; type: ADME, Microsome
[8] = Stability in CD1 mouse liver microsomes assessed as rapid hydroxylation at 1 uM; type: ADME, Microsome
[9] = Stability in human liver microsomes assessed as rapid demethylation at 1 uM; type: ADME, Microsome
[10] = Stability in human liver microsomes assessed as rapid oxidation at 1 uM; type: ADME, Microsome
[11] = Stability in human liver microsomes assessed as rapid hydroxylation at 1 uM; type: ADME, Microsome
[12] = molecular target: P2X purinoceptor 1 (Homo sapiens) (UniProt P51575); experiment: Inhibition of human P2X1 assessed as reduction in agonist-induced intracellular Ca2+ concentration at 10 uM pre-incubated for 30 mins before agonist addition by calcium 5 dye based fluorescence assay; type: cell-based
P2X purinoceptor 1 (Homo sapiens), sequence (P51575 whole entry): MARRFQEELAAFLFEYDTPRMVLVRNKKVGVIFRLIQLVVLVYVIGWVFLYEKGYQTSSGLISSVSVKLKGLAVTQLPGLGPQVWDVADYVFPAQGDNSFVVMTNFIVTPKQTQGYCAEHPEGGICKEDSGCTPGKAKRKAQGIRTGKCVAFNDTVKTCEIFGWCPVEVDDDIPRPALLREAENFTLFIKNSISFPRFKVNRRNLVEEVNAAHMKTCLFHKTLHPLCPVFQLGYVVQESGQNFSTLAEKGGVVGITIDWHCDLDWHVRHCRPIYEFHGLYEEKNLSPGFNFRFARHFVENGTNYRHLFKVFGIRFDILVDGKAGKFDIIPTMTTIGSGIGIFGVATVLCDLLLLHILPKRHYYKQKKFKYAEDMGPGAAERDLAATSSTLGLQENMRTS

[13] = molecular target: Peroxisome proliferator-activated receptor gamma (Homo sapiens) (UniProt P37231); experiment: Inhibition of human PPARgamma at 10 uM relative to control
Peroxisome proliferator-activated receptor gamma (Homo sapiens), sequence (P37231 whole entry): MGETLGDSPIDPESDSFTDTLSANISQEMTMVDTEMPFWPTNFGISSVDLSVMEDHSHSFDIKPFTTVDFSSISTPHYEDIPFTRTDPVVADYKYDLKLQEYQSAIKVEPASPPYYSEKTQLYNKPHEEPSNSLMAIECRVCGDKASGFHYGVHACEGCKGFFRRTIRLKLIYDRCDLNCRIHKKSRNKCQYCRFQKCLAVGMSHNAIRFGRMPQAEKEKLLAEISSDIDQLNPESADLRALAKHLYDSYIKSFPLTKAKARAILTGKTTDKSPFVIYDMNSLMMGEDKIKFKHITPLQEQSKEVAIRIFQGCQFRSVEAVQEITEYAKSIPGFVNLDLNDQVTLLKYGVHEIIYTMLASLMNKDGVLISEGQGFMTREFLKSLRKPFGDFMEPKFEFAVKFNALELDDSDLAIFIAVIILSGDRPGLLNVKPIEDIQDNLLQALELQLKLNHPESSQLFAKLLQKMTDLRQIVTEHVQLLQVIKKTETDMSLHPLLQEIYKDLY

Homo sapiens = species: Homo sapiens; experiment: Inhibition of Calcium channel (unknown origin) at 10 uM relative to control
[14] = molecular target: Adenosine receptor A1 (Homo sapiens) (UniProt P30542); experiment: Inhibition of human A1 adenosine receptor incubated for 60 mins by liquid scintillation counting method
Adenosine receptor A1 (Homo sapiens), sequence (P30542 whole entry): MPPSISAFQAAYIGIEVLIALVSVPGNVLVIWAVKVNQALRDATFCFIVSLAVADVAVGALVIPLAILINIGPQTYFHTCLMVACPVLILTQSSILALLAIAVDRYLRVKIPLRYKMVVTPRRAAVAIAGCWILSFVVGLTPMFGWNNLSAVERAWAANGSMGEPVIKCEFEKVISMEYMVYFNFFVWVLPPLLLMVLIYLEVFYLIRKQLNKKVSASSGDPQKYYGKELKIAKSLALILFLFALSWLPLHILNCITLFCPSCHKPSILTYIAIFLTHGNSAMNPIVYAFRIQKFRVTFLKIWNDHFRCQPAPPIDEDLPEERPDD

[15] = molecular target: Adenosine receptor A2a (Homo sapiens) (UniProt P29274); experiment: Inhibition of human A2A adenosine receptor incubated for 60 mins by liquid scintillation counting method
[16] = molecular target: Adenosine receptor A2b (Homo sapiens) (UniProt P29275); experiment: Inhibition of human A2B adenosine receptor incubated for 60 mins by liquid scintillation counting method
Adenosine receptor A2b (Homo sapiens), sequence (P29275 whole entry): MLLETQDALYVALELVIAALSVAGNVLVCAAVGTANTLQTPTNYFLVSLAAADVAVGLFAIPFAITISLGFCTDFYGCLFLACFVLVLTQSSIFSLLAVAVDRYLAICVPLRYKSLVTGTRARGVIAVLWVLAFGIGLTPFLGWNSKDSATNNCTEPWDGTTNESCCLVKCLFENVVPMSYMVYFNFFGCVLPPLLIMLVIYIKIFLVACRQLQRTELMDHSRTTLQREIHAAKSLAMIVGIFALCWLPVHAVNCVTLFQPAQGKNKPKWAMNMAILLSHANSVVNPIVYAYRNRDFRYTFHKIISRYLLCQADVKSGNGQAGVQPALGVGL

[17] = molecular target: P2Y purinoceptor 1 (Homo sapiens) (UniProt P47900); experiment: Inhibition of human P2Y1 assessed as reduction in agonist-induced intracellular Ca2+ concentration at 10 uM pre-incubated for 30 mins before agonist addition by FLUO-4 AM dye based fluorescence assay; type: functional, cell-based
P2Y purinoceptor 1 (Homo sapiens), sequence (P47900 whole entry): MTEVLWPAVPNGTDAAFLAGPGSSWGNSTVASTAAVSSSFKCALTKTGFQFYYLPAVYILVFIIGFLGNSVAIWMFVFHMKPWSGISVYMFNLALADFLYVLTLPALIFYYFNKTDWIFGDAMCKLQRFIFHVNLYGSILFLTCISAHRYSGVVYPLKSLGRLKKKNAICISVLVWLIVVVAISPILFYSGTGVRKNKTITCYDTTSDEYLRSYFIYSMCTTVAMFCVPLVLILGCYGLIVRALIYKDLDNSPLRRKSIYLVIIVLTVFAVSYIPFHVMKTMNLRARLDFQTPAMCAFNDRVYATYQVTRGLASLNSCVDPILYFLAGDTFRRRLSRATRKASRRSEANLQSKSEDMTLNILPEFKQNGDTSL

[18] = molecular target: P2Y purinoceptor 2 (Homo sapiens) (UniProt P41231); experiment: Inhibition of human P2Y2 assessed as reduction in agonist-induced intracellular Ca2+ concentration at 10 uM pre-incubated for 30 mins before agonist addition by FLUO-4 AM dye based fluorescence assay; type: functional, cell-based
P2Y purinoceptor 2 (Homo sapiens), sequence (P41231 whole entry): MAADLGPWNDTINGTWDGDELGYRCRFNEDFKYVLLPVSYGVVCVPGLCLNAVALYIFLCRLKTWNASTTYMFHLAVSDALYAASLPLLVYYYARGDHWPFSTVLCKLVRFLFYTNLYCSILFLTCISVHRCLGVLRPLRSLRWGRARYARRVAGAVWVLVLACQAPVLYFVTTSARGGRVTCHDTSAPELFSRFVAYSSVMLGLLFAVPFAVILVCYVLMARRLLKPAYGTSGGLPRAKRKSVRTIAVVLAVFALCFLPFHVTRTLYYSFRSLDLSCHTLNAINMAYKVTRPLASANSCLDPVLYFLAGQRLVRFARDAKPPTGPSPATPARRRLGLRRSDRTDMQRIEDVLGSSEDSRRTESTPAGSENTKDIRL

[19] = molecular target: P2Y purinoceptor 4 (Homo sapiens) (UniProt P51582); experiment: Inhibition of human P2Y4 assessed as reduction in agonist-induced intracellular Ca2+ concentration at 10 uM pre-incubated for 30 mins before agonist addition by FLUO-4 AM dye based fluorescence assay; type: functional, cell-based
P2Y purinoceptor 4 (Homo sapiens), sequence (P51582 whole entry): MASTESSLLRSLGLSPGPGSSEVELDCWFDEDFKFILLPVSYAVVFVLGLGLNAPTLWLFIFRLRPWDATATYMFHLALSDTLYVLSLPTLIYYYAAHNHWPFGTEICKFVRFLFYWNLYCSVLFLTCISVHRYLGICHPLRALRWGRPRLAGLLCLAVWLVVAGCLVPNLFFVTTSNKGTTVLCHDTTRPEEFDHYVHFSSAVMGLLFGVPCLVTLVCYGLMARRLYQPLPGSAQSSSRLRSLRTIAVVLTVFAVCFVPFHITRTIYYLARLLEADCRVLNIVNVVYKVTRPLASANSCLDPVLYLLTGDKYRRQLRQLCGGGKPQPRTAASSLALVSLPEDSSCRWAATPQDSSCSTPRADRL

[20] = molecular target: P2Y purinoceptor 6 (Homo sapiens) (UniProt Q15077); experiment: Inhibition of human P2Y6 assessed as reduction in agonist-induced intracellular Ca2+ concentration at 10 uM pre-incubated for 30 mins before agonist addition by FLUO-4 AM dye based fluorescence assay; type: functional, cell-based
P2Y purinoceptor 6 (Homo sapiens), sequence (Q15077 whole entry): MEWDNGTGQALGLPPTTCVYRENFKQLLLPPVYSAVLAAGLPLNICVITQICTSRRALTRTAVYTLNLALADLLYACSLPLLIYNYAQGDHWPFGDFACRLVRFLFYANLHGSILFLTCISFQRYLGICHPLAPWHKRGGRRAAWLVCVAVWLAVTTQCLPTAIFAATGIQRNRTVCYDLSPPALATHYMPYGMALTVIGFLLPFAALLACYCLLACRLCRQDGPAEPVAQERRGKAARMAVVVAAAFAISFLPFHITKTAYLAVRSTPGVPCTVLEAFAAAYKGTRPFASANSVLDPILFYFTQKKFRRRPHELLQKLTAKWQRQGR

[21] = molecular target: P2Y purinoceptor 11 (Homo sapiens) (UniProt Q96G91); experiment: Inhibition of human P2Y11 assessed as reduction in agonist-induced intracellular Ca2+ concentration at 10 uM pre-incubated for 30 mins before agonist addition by FLUO-4 AM dye based fluorescence assay; type: functional, cell-based
P2Y purinoceptor 11 (Homo sapiens), sequence (Q96G91 whole entry): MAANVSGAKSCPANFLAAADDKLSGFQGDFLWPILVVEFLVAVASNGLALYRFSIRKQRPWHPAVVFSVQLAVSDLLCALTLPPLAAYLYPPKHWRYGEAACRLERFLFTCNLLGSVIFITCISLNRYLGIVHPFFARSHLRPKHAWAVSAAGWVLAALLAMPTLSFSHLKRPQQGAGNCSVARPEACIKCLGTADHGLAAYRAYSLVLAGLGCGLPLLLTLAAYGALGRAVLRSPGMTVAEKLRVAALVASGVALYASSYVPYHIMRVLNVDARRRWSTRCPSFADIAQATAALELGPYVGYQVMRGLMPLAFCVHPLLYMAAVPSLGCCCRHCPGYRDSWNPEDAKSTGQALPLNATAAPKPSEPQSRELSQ

[22] = molecular target: P2Y purinoceptor 12 (Homo sapiens) (UniProt Q9H244); experiment: Inhibition of human P2Y12 assessed as reduction in agonist-induced intracellular Ca2+ concentration at 10 uM pre-incubated for 30 mins before agonist addition by FLUO-4 AM dye based fluorescence assay; type: functional, cell-based
P2Y purinoceptor 12 (Homo sapiens), sequence (Q9H244 whole entry): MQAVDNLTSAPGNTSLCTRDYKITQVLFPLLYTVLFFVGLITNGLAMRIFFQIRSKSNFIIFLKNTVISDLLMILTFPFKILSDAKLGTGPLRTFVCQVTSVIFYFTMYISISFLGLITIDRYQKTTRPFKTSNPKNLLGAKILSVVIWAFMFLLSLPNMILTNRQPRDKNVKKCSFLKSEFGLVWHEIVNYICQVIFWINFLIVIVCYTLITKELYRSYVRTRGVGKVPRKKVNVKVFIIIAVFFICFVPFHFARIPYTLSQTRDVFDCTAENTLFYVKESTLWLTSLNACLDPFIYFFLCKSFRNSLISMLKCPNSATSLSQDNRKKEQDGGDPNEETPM

[23] = molecular target: P2Y purinoceptor 14 (Homo sapiens) (UniProt Q15391); experiment: Inhibition of human P2Y14 assessed as reduction in agonist-induced intracellular Ca2+ concentration at 10 uM pre-incubated for 30 mins before agonist addition by FLUO-4 AM dye based fluorescence assay; type: functional, cell-based
[24] = molecular target: Uracil nucleotide/cysteinyl leukotriene receptor (Homo sapiens) (UniProt Q13304); experiment: Inhibition of human GPR17 at 10 uM by Oregon-green BAPTA-1/AM dye based calcium mobilization assay; type: functional
[25] = molecular target: P2X purinoceptor 2 (Homo sapiens) (UniProt Q9UBL9); experiment: Inhibition of human P2X2 assessed as reduction in agonist-induced intracellular Ca2+ concentration at 10 uM pre-incubated for 30 mins before agonist addition by FLUO-4 AM dye based fluorescence assay; type: cell-based
P2X purinoceptor 2 (Homo sapiens), sequence (Q9UBL9 whole entry): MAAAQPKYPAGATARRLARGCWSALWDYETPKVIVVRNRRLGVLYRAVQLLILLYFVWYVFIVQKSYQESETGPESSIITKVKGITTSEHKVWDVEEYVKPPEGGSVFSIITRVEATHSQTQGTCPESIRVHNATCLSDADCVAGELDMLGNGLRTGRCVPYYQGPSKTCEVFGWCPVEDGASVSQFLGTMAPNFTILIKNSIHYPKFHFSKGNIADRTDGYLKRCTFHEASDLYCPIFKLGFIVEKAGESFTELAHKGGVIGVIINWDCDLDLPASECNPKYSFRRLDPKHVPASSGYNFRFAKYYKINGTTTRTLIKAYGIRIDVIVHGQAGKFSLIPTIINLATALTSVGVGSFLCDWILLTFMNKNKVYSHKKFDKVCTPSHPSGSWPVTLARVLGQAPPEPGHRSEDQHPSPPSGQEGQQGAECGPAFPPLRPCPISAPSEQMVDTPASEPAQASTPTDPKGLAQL

[26] = molecular target: P2X purinoceptor 4 (Homo sapiens) (UniProt Q99571); experiment: Inhibition of human P2X4 assessed as reduction in agonist-induced intracellular Ca2+ concentration at 10 uM pre-incubated for 30 mins before agonist addition by FLUO-4 AM dye based fluorescence assay; type: cell-based
P2X purinoceptor 4 (Homo sapiens), sequence (Q99571 whole entry): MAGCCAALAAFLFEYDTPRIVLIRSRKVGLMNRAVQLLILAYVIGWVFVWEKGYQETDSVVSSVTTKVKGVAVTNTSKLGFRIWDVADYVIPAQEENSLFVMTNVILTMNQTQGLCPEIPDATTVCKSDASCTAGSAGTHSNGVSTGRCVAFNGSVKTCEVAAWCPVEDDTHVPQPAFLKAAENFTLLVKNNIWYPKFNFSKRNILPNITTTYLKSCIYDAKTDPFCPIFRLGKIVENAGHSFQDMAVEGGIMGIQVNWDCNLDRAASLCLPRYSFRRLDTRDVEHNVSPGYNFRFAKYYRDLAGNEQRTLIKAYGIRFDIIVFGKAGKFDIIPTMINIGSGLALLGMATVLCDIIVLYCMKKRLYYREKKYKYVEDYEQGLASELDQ

[27] = molecular target: P2X purinoceptor 7 (Homo sapiens) (UniProt Q99572); experiment: Inhibition of human P2X7 assessed as reduction in agonist-induced intracellular Ca2+ concentration at 10 uM pre-incubated for 30 mins before agonist addition by FLUO-4 AM dye based fluorescence assay; type: cell-based
[28] = molecular target: P2X purinoceptor 3 (Homo sapiens) (UniProt P56373); experiment: Non-competitive inhibition of human P2X3 expressed in human 1321N1 cells assessed as reduction in maximal effect of ATP-induced intracellular Ca2+ concentration pre-incubated for 30 mins before agonist addition by calcium 5 dye based fluorescence assay; type: cell-based

## CO[C@@H]1/C(C)=C/C=C/CCOC(=O)C/C=C/C(C)=C/[C@@H](O)[C@@H](C)\C=C(C)/C=C(C)\C=C\[C@@H](O)[C@@H]1C
Adenosine receptor A3
  pKi: 6.22
Neutrophil elastase
  pIC50: 5.23

## CNC(=O)O[C@@H](CC(C)C)c1nc([C@H]2OC(=O)[C@@H](C)/C=C/C(C)=C/[C@@H](O)[C@@H](C)\C=C(C)/C=C(C)\C=C\[C@@H](O)[C@H](C)[C@H](OC)/C(C)=C/C=C/[C@@H]2C)cs1
[1]
  pIC50: 8.26
P2X purinoceptor 3
  pIC50: 6.19
Adenosine receptor A3
  pKi: 5.94
Neutrophil elastase
  pIC50: 6.14
cells
  pIC50: 8.67

## CO/C1=C\C(C)=C\[C@@H](C)[C@@H](O)[C@@H](C)C/C(C)=C/C=C/[C@H](OC)[C@@H]([C@@H](C)[C@@H](O)[C@H](C)[C@@]2(O)C[C@@H](O)[C@H](C)[C@@H](C(C)C)O2)OC1=O [BAFILOMYCIN A1]
[1]
  pIC50: 8.00
P2X purinoceptor 3
  pIC50: 6.12
Adenosine receptor A3
  pKi: 5.97
Neutrophil elastase
  IC50: Not Active
cells
  pIC50: 8.51

## CNC(=O)O[C@@H](CC(C)C)c1nc([C@H]2OC(=O)C/C=C/C(C)=C/[C@@H](O)[C@@H](C)\C=C(C)/C=C(C)\C=C\[C@@H](O)[C@H](C)[C@H](O)/C(C)=C/C=C/[C@@H]2C)cs1
[1]
  pIC50: 6.67
P2X purinoceptor 3
  pIC50: < 5.00
Adenosine receptor A3
  pKi: 5.86
Neutrophil elastase
  pIC50: 5.81
cells
  pIC50: 5.52

## CNC(=O)O[C@@H](CC(C)C)c1nc([C@H]2OC(=O)C/C=C/C(C)=C/[C@@H](O)[C@@H](C)\C=C(C)/C=C(C)\C=C\[C@@H](O)[C@H](C)[C@H](OC)/C(C)=C/C=C/[C@@H]2C)cs1 [ARCHAZOLID F]
[2]
  microsomal CLint at 1 µM: 271 µL/min/mg
[1]
  pIC50: 8.20
P2X purinoceptor 3
  pIC50: 6.36
Adenosine receptor A3
  pKi: 6.07
Neutrophil elastase
  pIC50: 6.08
Trypsin (Homo sapiens)
  inhibition: inactive
[3]
  inhibition: inactive
[4]
  inhibition: inactive
[5]
  inhibition: inactive
[6]
  Drug metabolism: Metabolite_Detected
[7]
  Drug metabolism: Metabolite_Detected
[8]
  Drug metabolism: Metabolite_Detected
[9]
  Drug metabolism: Metabolite_Detected
[10]
  Drug metabolism: Metabolite_Detected
[11]
  Drug metabolism: Metabolite_Detected
cells
  pIC50: 8.35

## CNC(=O)O[C@@H](CC(C)C)c1nc([C@H]2OC(=O)/C(C)=C/C/C(C)=C/[C@@H](O)[C@@H](C)\C=C(C)/C=C(C)\C=C\[C@@H](O)[C@H](C)[C@H](OC)/C(C)=C/C=C/[C@@H]2C)cs1 [ARCHAZOLID A]
[12]
  inhibition: inactive
[1]
  pIC50: 8.20
P2X purinoceptor 3
  pIC50: 7.06
Adenosine receptor A3
  pKi: 6.01
Neutrophil elastase
  pIC50: 6.45
[13]
  inhibition: 82%
Homo sapiens
  inhibition: 52%
[14]
  inhibition: inactive
[15]
  inhibition: inactive
[16]
  inhibition: inactive
[17]
  inhibition: inactive
[18]
  inhibition: inactive
[19]
  inhibition: inactive
[20]
  inhibition: inactive
[21]
  inhibition: inactive
[22]
  inhibition: inactive
[23]
  inhibition: inactive
[24]
  inhibition: inactive
[25]
  inhibition: inactive
[26]
  inhibition: inactive
[27]
  inhibition: inactive
[28]
  inhibition: Dose-dependent effect
Trypsin (Homo sapiens)
  inhibition: inactive
[3]
  inhibition: inactive
[4]
  inhibition: inactive
[5]
  inhibition: inactive
cells
  pIC50: 9.60

## CNC(=O)O[C@@H](CC(C)C)c1nc([C@@H](O)[C@@H](C)/C=C/C=C(\C)[C@@H](OC)[C@@H](C)[C@H](O)/C=C/C(C)=C\C(C)=C/[C@H](C)[C@H](O)/C=C(C)/C=C/CC(=O)OC)cs1
[1]
  pIC50: 6.45
P2X purinoceptor 3
  pIC50: < 5.00
Adenosine receptor A3
  pKi: 5.79
Neutrophil elastase
  pIC50: 5.63
cells
  pIC50: 6.53

## CNC(=O)O[C@@H](CC(C)C)c1nc([C@H]2OC(=O)[C@H](C)/C=C/C(C)=C/[C@@H](O)[C@@H](C)\C=C(C)/C=C(C)\C=C\[C@@H](O)[C@H](C)[C@H](OC)/C(C)=C/C=C/[C@@H]2C)cs1
[1]
  pIC50: 8.10
P2X purinoceptor 3
  pIC50: < 5.70
Adenosine receptor A3
  pKi: ≤ 5.00
Neutrophil elastase
  pIC50: 6.23
cells
  pIC50: 8.59

— ChEMBL document CHEMBL4376896, “Synthesis of Novel Potent Archazolids: Pharmacology of an Emerging Class of Anticancer Drugs” (J Med Chem, 2020)
